In patent US20230321123A1, “INHIBITORS OF PSEUDOMONAS AERUGINOSA VIRULENCE FACTOR LasB” (Helmholtz-Zentrum Für Infektionsforschung GmbH, priority 2020, published 2023):

Columns and labels:
CYP1A = target: T1, CYP1A (Homo sapiens, UniProt P05177); assay: CYP inhibition CYP1A; type: in vitro ADME
T1 sequence (P05177 2-516): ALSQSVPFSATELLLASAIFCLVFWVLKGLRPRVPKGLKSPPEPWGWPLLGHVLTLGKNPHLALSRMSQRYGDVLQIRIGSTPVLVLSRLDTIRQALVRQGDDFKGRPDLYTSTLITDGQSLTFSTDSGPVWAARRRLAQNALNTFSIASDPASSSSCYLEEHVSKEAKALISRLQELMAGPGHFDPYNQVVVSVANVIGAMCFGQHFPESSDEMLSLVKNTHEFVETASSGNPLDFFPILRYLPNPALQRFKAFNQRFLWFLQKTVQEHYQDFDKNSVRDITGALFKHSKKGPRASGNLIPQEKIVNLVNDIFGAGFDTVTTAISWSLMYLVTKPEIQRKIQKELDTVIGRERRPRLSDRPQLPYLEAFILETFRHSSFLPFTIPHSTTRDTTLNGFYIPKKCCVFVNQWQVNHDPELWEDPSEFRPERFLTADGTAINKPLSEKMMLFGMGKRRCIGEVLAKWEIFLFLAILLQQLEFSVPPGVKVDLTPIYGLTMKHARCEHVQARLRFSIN
Excerpt: (§1) As the compound of example 2 has shown an impressive activity in the in vitro LasB inhibition assay, high selectivity over a broad spectrum of human enzymes and no signs of cytotoxicity in vitro, it has been subjected to a more advanced safety screening (Table 9).

CYP2C19 = CYP2C19 (Homo sapiens, UniProt P33261); assay: CYP inhibition CYP2C19; type: in vitro ADME
Sequence of CYP2C19 (P33261 whole entry): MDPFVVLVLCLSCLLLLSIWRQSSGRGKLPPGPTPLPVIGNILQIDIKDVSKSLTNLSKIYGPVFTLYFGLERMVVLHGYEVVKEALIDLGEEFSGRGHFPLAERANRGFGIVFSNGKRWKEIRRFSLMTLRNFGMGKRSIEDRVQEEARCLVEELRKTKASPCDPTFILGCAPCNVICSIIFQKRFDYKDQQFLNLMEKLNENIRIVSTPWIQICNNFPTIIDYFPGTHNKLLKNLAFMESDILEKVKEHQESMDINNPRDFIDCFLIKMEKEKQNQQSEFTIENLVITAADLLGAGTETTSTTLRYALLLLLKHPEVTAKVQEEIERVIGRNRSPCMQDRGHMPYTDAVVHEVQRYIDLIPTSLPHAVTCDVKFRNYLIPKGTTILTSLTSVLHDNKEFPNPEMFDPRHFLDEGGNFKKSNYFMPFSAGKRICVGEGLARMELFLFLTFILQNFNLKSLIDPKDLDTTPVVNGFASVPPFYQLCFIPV
Excerpt: as §1

MMP-2 = target: T2, MMP-2 (Homo sapiens, UniProt P08253); assay: Selectivity against human off-targets: MMP-2; type: biochemical; conditions: read-out: Inhibition [%] MMP-2
T2 sequence (P08253 110-660): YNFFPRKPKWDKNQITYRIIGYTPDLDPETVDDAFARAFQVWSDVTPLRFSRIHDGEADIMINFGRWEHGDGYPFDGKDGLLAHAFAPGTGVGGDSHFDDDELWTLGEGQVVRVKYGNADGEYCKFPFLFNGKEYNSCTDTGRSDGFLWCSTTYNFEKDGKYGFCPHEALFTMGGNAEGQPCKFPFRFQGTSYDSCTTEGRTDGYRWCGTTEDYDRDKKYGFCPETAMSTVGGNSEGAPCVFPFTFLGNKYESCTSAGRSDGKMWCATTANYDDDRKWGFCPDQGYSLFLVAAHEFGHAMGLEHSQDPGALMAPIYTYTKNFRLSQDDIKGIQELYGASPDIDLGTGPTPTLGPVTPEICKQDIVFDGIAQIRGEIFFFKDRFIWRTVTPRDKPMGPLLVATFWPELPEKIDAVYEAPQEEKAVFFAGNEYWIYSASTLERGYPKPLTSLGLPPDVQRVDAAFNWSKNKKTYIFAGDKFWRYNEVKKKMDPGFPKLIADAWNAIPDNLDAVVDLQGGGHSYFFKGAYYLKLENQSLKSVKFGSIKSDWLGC
Excerpt: (§2) The inhibition of zinc-containing human enzymes is described frequently for LasB inhibitors and poses a serious difficulty in the development of selective compounds. Particularly, the inhibition of matrix metalloproteases (MMPs) should be avoided. To further investigate this issue, three derivatives (the compounds of examples 1, 5 and 8) have been tested for their selectivity against several human off-targets, including six MMPs, ADAM17 (TACE), HDAC-3 and HDAC-8 (Table 4). The selectivity of the compounds is particularly high for MMPs and HDACs, whereas the inhibition of ADAM17 was considerably stronger.

MMP-3 = MMP-3 (Homo sapiens, UniProt P08254); assay: Selectivity against human off-targets: MMP-3; type: biochemical; conditions: read-out: Inhibition [%] MMP-3
Sequence of MMP-3 (P08254 100-477): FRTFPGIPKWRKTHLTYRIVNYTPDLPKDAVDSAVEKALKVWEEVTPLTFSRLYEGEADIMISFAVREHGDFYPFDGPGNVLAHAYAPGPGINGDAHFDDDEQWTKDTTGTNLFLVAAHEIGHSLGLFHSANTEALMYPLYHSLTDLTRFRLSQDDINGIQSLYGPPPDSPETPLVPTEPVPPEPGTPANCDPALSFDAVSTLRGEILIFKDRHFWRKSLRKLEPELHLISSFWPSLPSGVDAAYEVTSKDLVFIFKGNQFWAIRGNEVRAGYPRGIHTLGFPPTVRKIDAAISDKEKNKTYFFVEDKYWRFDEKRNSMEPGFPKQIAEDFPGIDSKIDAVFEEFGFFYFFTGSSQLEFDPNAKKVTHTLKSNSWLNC
Excerpt: as §2

HDAC-3 = HDAC-3 (Homo sapiens, UniProt O15379); assay: Selectivity against human off-targets: HDAC-3; type: biochemical; conditions: read-out: IC50 HDAC-3
Sequence of HDAC-3 (O15379 whole entry): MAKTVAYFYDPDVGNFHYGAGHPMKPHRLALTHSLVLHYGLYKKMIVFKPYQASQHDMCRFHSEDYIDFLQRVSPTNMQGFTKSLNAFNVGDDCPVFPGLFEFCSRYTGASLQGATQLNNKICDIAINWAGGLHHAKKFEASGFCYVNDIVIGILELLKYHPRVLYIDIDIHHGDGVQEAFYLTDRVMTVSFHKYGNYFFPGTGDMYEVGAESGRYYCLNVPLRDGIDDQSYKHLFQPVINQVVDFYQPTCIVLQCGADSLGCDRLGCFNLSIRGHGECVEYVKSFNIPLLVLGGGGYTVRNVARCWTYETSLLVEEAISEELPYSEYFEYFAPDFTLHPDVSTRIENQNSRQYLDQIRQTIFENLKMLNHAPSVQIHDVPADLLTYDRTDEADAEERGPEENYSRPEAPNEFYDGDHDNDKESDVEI
Sequence of HDAC-3 (Q9Y618 395-489 partner limits assumed): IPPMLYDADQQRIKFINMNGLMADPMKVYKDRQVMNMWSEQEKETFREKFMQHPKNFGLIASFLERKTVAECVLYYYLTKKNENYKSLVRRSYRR
Excerpt: as §2

MMP-1 = target: T3, MMP-1 (Homo sapiens, UniProt P03956); assay: Selectivity against human off-targets: MMP-1; type: biochemical; conditions: read-out: Inhibition [%] MMP-1
T3 sequence (P03956 100-469): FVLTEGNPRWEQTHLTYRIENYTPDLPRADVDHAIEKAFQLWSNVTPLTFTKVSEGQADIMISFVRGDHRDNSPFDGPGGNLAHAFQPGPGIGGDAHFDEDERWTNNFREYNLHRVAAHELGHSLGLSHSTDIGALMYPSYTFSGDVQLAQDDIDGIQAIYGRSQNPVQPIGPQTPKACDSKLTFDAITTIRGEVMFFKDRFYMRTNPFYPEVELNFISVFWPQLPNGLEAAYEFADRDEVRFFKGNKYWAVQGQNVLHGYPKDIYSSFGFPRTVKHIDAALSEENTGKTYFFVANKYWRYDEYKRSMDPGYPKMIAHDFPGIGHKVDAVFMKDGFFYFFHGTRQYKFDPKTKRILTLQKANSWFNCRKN
Excerpt: as §2

MMP-8 = MMP-8 (Homo sapiens, UniProt P22894); assay: Selectivity against human off-targets: MMP-8; type: biochemical; conditions: read-out: Inhibition [%] MMP-8
Sequence of MMP-8 (P22894 101-467): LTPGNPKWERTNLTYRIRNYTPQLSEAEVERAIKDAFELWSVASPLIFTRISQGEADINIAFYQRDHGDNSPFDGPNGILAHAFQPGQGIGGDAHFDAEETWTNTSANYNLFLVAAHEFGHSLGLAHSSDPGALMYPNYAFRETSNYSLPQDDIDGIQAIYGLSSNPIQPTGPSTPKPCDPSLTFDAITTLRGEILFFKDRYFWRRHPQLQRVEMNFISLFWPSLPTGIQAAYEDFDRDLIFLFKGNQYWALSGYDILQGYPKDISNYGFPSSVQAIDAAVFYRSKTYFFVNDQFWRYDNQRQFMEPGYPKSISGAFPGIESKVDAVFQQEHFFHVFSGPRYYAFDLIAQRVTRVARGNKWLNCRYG
Excerpt: as §2

MMP-14 = MMP-14 (Homo sapiens, UniProt P50281); assay: Selectivity against human off-targets: MMP-14; type: biochemical; conditions: read-out: Inhibition [%] MMP-14
Excerpt: as §2

CYP2C9 = CYP2C9 (Homo sapiens, UniProt P11712); assay: CYP inhibition CYP2C9; type: in vitro ADME
Sequence of CYP2C9 (P11712 whole entry): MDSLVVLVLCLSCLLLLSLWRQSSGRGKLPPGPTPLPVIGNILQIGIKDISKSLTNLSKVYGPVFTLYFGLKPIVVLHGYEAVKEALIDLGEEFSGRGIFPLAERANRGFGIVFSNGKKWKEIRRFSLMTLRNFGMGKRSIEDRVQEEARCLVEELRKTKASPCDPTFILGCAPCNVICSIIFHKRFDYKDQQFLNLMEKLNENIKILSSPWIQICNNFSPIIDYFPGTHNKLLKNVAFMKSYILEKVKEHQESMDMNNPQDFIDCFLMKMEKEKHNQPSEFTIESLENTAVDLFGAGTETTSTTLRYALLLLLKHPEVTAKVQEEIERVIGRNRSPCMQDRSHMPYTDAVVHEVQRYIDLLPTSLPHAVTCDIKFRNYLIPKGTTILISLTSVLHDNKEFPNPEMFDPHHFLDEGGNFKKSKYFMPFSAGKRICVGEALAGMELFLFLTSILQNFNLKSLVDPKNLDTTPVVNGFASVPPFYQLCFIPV
Excerpt: as §1

Cytotoxicity A549 = type: cell-based; conditions: human; A549
Description: (§3) The compounds of examples 1 and 5 were not toxic against the cell lines HepG2, HEK293 and A549 (Table 5). Additionally, the inhibitory effect against P. aeruginosa PA14 was evaluated to exclude an antibacterial effect of the compounds of the present invention. This is important as it was the aim to target virulence and not viability of the bacteria. […]

[1] = mini-Ames reverse mutation assay; type: cell-based; conditions: up to 125 μg/mL
Excerpt: as §1

CYP2D6 = CYP2D6 (Homo sapiens, UniProt P10635); assay: CYP inhibition CYP2D6; type: in vitro ADME
Sequence of CYP2D6 (P10635 whole entry): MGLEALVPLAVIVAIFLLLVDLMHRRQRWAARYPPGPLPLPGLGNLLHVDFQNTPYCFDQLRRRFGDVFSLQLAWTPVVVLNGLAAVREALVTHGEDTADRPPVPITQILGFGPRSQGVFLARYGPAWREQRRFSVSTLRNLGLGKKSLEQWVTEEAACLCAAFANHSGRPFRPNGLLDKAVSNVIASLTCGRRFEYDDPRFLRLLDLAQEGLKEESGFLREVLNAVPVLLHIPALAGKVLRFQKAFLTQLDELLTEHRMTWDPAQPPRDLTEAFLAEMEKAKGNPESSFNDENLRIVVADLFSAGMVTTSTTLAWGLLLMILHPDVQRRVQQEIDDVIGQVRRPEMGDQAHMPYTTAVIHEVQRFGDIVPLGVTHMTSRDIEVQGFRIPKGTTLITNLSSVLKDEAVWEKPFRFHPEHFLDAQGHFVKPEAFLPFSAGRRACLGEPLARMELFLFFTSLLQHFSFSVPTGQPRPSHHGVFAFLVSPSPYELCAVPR
Excerpt: as §1

Cytotoxicity HEK293 = type: cell-based; conditions: human; HEK293
Description: as §3

ADAM17 (TACE) = ADAM17 (TACE) (Homo sapiens, UniProt P78536); assay: Selectivity against human off-targets: ADAM17 (TACE); type: biochemical; conditions: read-out: IC50 ADAM17 (TACE)
Sequence of ADAM17 (TACE) (P78536 215-824): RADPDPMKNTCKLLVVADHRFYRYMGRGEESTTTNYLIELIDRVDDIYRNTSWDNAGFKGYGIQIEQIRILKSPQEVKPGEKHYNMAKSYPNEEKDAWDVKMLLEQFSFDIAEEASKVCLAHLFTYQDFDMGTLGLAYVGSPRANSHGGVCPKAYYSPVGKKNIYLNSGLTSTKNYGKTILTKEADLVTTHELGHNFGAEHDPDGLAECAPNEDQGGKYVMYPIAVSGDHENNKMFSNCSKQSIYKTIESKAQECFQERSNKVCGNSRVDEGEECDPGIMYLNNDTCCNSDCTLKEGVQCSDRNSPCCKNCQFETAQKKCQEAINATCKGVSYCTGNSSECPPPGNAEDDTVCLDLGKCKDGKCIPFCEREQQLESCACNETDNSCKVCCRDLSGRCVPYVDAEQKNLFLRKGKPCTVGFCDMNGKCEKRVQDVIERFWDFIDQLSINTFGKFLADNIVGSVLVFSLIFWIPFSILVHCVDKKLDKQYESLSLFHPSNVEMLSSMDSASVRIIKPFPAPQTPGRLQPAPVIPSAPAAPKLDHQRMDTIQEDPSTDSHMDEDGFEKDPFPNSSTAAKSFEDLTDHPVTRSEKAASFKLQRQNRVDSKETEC

LasB = LasB (Pseudomonas aeruginosa, UniProt Q02RJ6); assay: biochemical; design: species or system P. aeruginosa; conditions: IC50 against LasB
Sequence of LasB (Q02RJ6 198-498): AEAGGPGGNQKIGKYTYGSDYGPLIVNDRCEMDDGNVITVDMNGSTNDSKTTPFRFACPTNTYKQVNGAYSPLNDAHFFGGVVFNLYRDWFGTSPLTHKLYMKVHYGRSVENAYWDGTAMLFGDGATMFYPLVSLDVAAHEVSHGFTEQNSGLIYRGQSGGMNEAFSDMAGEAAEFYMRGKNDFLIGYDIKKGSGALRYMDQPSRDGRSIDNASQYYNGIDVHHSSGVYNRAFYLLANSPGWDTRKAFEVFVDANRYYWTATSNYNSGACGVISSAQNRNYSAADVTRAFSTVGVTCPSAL

Cc1ccc(NC(=O)C(S)CC(C)C)cc1 (stereo not shown) [Example 2, 2-Mercapto-4-methyl-N-(p-tolyl)pentanamide]
IC50 (CYP1A): > 25 µM | melting point: 90 °C | IC50 (CYP2C19): 1 µM | inhibition at 100 µM (MMP-2): < 10% | inhibition at 100 µM (MMP-3): < 10% | IC50 (HDAC-3): > 100 µM | inhibition at 100 µM (MMP-1): < 10% | inhibition at 100 µM (MMP-8): < 10% | inhibition at 100 µM (MMP-14): < 10% | IC50 (CYP2C9): > 25 µM | IC50 (Cytotoxicity A549): > 100 µM | Mini-Ames genotoxicity [1]: no genotoxicity and No | IC50 (CYP2D6): 22.3 µM | IC50 (Cytotoxicity HEK293): > 50 µM | IC50 (ADAM17 (TACE)): 4.5 ± 1.8 µM | IC50 (LasB): 0.4 ± 0.13 µM
